From patent US20220226479A1, “CELL LAYER PERMEATION PROMOTER. COMPOSITION FOR FACILITATING DRUG ABSORPTION. AND PHARMACEUTICAL COMPOSITION” (University of Tsukuba, priority 2019, published 2022)
Entries after “also recorded” stand apart in the source; their conditions may differ. Where a SMILES comes first, the peptide text is derived from it. Bridges are numbered along the chain shown (N, C = ends). [ ]: non-standard residue; d: D form. The star is where a group is joined. ξ: configuration not given here. Decanoyl(3ξ-OH) = CCCCCCCC(O)CC(=O)*; Decanoyl = CCCCCCCCCC(=O)*

System: MDCK II cells
Assay: Permeation evaluation test with FD4 marker (dextran, molecular weight 4000) across a model epithelial cell layer in a transwell
Format: cell-based, dog
Conditions: for cell-layer-permeation-promoting effect (permeation of FD4, result in words): 0.003 mM in 1 v/v % DMSO, FIG. 1-4; for cell-layer-permeation-promoting effect compared with cu538-2: both at 0.003 mM, test examples 2-4, FIG. 2-4; for increase/accumulation in the amount permeating the receiver solution, late period / reversibility of the permeation-accelerating effect: 0.003 mM; for increase/accumulation in the amount permeating the receiver solution, late period: period from two hours to five hours after the start of testing, test example 1; for reversibility of the permeation-accelerating effect: recovery of tight junctions and other cell bonding structures; for increase in the amount of FD4 permeating the receiver solution with respect to the negative control (factor): test substance 0.003 mM in 1 v/v % DMSO, two hours after the start of testing, test example 1, FIG. 1
Description: MDCK II cells derived from dog kidney epithelial cells were used to create a model of an epithelial cell layer in which a transwell was used, and a test to evaluate permeation by substances was conducted. Specifically, MDCK II cells in a logarithmic growth phase were sowed in a transwell (diameter: 6.5 mm, collagen coat, pore size: 0.4 μm) (trade name “Corning Transwell 3495,” made by Corning Co., Ltd.) at a cell count of 3.4 to 4.0×10^4 cells, a 24-hole well plate was used as basal-side wells, and 600 μL of a cell growth medium was introduced into each of apical-side wells and the basal-side wells. The medium was replaced daily to form a layer, and three days after sowing the medium was replaced with a Hank's balanced salt solution (HESS) for measurement. After incubation for one hour at 37° C., layer formation was confirmed by measuring the transepithelial electrical resistance (TEER) using a resistance value measurement system (trade name “Millicell-ERS,” made by Millipore Corp.). After layer formation was confirmed, the apical-side medium was replaced by 100 μL of HESS to which a marker substance (FD4: […]) (made by Sigma KK) having a molecular weight of 4000 was added so as to reach a concentration of 1.0 w/v %, and test substances were added so as to reach the final concentrations indicated below. The transwell was shifted, at intervals of 30 minutes until five hours after addition of the marker substance, to the basal-side wells into which the new HESS entered, and the HESS in the remaining basal-side wells (referred to as a “receiver solution” below) was retrieved 50 μL at a time per well in a 96-hole well plate. The fluorescence intensity of the retrieved HESS at an excitation wavelength of 485 nm and a fluorescence wavelength of 528 nm was measured using a fluorescent plate reader (trade name “Wallac 1420 ARVO MX,” made by Perkin Elmer Corp.).
A test to evaluate permeation by substances was conducted in the same manner as in test example 1, except that the test substances were as indicated below.

`CCCCCCCC(O)CC(=O)N[C@@H](CC(C)C)C(=O)N[C@H](CCC(=O)O)C(=O)N[C@H](CCC(N)=O)C(=O)N[C@@H](C(=O)N[C@H](CC(C)C)C(=O)N[C@@H](CCC(N)=O)C(=O)N[C@@H]1COC(=O)[C@H]([C@@H](C)CC)NC(=O)[C@@H](C)NC(=O)[C@H](CC(C)C)NC(=O)[C@H](CC(C)C)NC(=O)[C@@H](CCC(N)=O)NC(=O)[C@@H](CC(C)C)NC(=O)[C@@H](C(C)C)NC1=O)C(C)C` (stereo partly drawn) [cu619] ({Decanoyl(3ξ-OH)}-L[dE][dQ][dV][dL]Q[dS][dV][dL][dQ]LL[dA]I; ester 7-C) was tested, and the “cell-layer-permeation-promoting effect (permeation of FD4, result in words)” value was “found to have an effect” and the “cell-layer-permeation-promoting effect compared with cu538-2” value was “more remarkable”.
For `CCCCCCCC(O)CC(=O)N[C@@H](CC(C)C)C(=O)N[C@H](CCC(=O)O)C(=O)N[C@H](CCC(N)=O)C(=O)N[C@@H](C(=O)N[C@H](CC(C)C)C(=O)N[C@@H](C)C(=O)N[C@@H]1COC(=O)[C@H]([C@@H](C)CC)NC(=O)[C@@H](CCC(N)=O)NC(=O)[C@H](CC(C)C)NC(=O)[C@H](CC(C)C)NC(=O)[C@@H](CCC(N)=O)NC(=O)[C@@H](CC(C)C)NC(=O)[C@@H](C(C)C)NC1=O)C(C)C` (stereo partly drawn) [cu592] ({Decanoyl(3ξ-OH)}-L[dE][dQ][dV][dL]A[dS][dV][dL][dQ]LL[dQ]I; ester 7-C), the “cell-layer-permeation-promoting effect compared with cu538-2” value was “equivalent”.
For `C/C1=C/C(=O)O[C@@H]2C[C@@H](CC[C@H](C)/C=C\C=C\CC1)O[C@@](O)([C@@H]1CSC(=O)N1)C2` [Latrunclin A, reference compound], the “amount of marker substance permeating the receiver solution over time (positive control)” value (0.0001 mM in 1 v/v % DMSO, over five hours after the start of testing) was “continuous increase/accumulation”.
`CCCCCCC[C@H](O)CC(=O)N[C@@H](CC(C)C)C(=O)N[C@H](CCC(=O)O)C(=O)N[C@H](CCC(N)=O)C(=O)N[C@@H](C(=O)N[C@H](CC(C)C)C(=O)N[C@@H](CCC(N)=O)C(=O)N[C@@H]1COC(=O)[C@H]([C@@H](C)CC)NC(=O)[C@@H](CCC(N)=O)NC(=O)[C@H](CC(C)C)NC(=O)[C@H](CC(C)C)NC(=O)[C@@H](CCC(N)=O)NC(=O)[C@@H](CC(C)C)NC(=O)[C@@H](C(C)C)NC1=O)C(C)C` (single isomer, unassigned) [cu538-1] was tested, and the “cell-layer-permeation-promoting effect (permeation of FD4, result in words)” value was “accelerated permeation of substances in the paracellular pathway”, the “increase/accumulation in the amount permeating the receiver solution, late period” value was “substantially no increase/accumulation” and the “reversibility of the permeation-accelerating effect” value (“reversibility” for short) was “reversible”. For the same compound, the “increase in the amount of FD4 permeating the receiver solution with respect to the negative control (factor)” value was “four”.
With `CCCCCCCCCC(=O)N[C@@H](CC(C)C)C(=O)N[C@H](CCC(=O)O)C(=O)N[C@H](CCC(N)=O)C(=O)N[C@@H](C(=O)N[C@H](CC(C)C)C(=O)N[C@@H](CCC(N)=O)C(=O)N[C@@H]1COC(=O)[C@H]([C@@H](C)CC)NC(=O)[C@@H](CCC(N)=O)NC(=O)[C@H](CC(C)C)NC(=O)[C@H](CC(C)C)NC(=O)[C@@H](CCC(N)=O)NC(=O)[C@@H](CC(C)C)NC(=O)[C@@H](C(C)C)NC1=O)C(C)C` [NY-38] (Decanoyl-L[dE][dQ][dV][dL]Q[dS][dV][dL][dQ]LL[dQ]I; ester 7-C) the “cell-layer-permeation-promoting effect (permeation of FD4, result in words)” value was “accelerated permeation of substances in the paracellular pathway; also recorded: cell-layer-permeation-promoting effect was found”, the “reversibility” value was “reversible” and the “cell-layer-permeation-promoting effect compared with cu538-2” value was “more remarkable”.
For `CCCCCCC[C@@H](O)CC(=O)N[C@@H](CC(C)C)C(=O)N[C@H](CCC(=O)O)C(=O)N[C@H](CCC(N)=O)C(=O)N[C@@H](C(=O)N[C@H](CC(C)C)C(=O)N[C@@H](CCC(N)=O)C(=O)N[C@@H]1COC(=O)[C@H]([C@@H](C)CC)NC(=O)[C@@H](CCC(N)=O)NC(=O)[C@H](CC(C)C)NC(=O)[C@H](CC(C)C)NC(=O)[C@@H](CCC(N)=O)NC(=O)[C@@H](CC(C)C)NC(=O)[C@@H](C(C)C)NC1=O)C(C)C` [cu538-2], the “cell-layer-permeation-promoting effect (permeation of FD4, result in words)” value was “accelerated permeation of substances in the paracellular pathway”, the “increase/accumulation in the amount permeating the receiver solution, late period” value was “substantially no increase/accumulation” and the “reversibility” value was “reversible”. The “increase in the amount of FD4 permeating the receiver solution with respect to the negative control (factor)” value was “eight”.
With `CCCCCCCC(O)CC(=O)N[C@@H](CC(C)C)C(=O)N[C@H](CCC(=O)O)C(=O)N[C@H](CCC(N)=O)C(=O)N[C@@H](C(=O)N[C@H](CC(C)C)C(=O)N[C@@H](CCC(N)=O)C(=O)N[C@@H]1COC(=O)[C@H]([C@@H](C)CC)NC(=O)[C@@H](CCC(N)=O)NC(=O)[C@H](CC(C)C)NC(=O)[C@H](CC(C)C)NC(=O)[C@@H](C)NC(=O)[C@@H](CC(C)C)NC(=O)[C@@H](C(C)C)NC1=O)C(C)C` (stereo partly drawn) [cu605] ({Decanoyl(3ξ-OH)}-L[dE][dQ][dV][dL]Q[dS][dV][dL][dA]LL[dQ]I; ester 7-C) the “cell-layer-permeation-promoting effect (permeation of FD4, result in words)” value was “found to have an effect”.
